Test results: patent US4866039A, “Peptides containing the 18 to 23 residues of vasoactive intestinal peptide, and analogues” (Beecham Group p.l.c., priority 1985, dated 1989)
Residues, ends and D or L forms follow the SMILES beside them.

System: rat proximal duodenum
Assay: acid disposal capacity of the rat proximal duodenum (anti-ulcer activity)
Format: in vivo
Settings: anaesthetized male Wistar rats; input pH 2.5, second pass; 150nmol/kg/h i.v. infusion; significance P<0.05
Description: Method for estimating the acid disposal capacity of the rat proximal duodenum
Male Wistar rats, 180-250g bodyweight, fasted overnight, are anaesthetized with urethane (150mg/100g bodyweight i.m.). The trachea is cannulated, and a gastric cannula, 0.5cm i.d., 3cm long, is inserted into the non-glandular forestomach via a mid-line abdominal incision. The intragastric cannula is exteriorized via a stab wound in the body wall. A triple lumen catheter, 0.3cm o.d., is passed via the gastric cannula through the pylorus. The duodenum is ligated 1cm below the pylorus, and the pylorus ligated around the cannula, thus creating a 1cm proximal duodenal pouch excluding pancreatic and biliary secretions. The two ligatures enclosing the duodenal pouch are placed so as to avoid occluding the blood supply to the duodenal segment. Gastric secretions are allowed to drain freely from the gastric cannula. Compounds are administered dissolved in 0.9% sodium chloride (saline) as a 1.2 ml/h infusion via a catheter inserted in a jugular vein.
The triple lumen catheter is connected as follows. […]
Lumen 2 collects the perfusate and delivers it to a flow cell containing a pH microelectrode. Outflow pH is recorded throughout the experiment. […]
A group size of 6 animals or larger is used and the effect of compounds on the output pH compared to control data determined. […]

CC(C)C[C@H](NC(=O)[C@H](Cc1ccc(O)cc1)NC(=O)[C@H](CCCCN)NC(=O)[C@H](CCCCN)NC(=O)[C@@H](NC(=O)[C@H](C)N)C(C)C)C(N)=O [Example 1, H-Ala-Val-Lys-Lys-Tyr-Leu-NH2] (H-AVKKYL-NH2)
acid disposal (output pH compared to control): significant increase in acid disposal
